From patent publication US20070269512A1, “GASTRORETENTIVE SUSTAINED RELEASE FORMULATIONS” (priority 2006, published 2007) come the findings set out here.

The series is described as follows: Pharmacokinetic study, plasma concentrations by LC-MS/MS. Set-up: species or system beagle dogs. The conditions noted are these: dog, in vivo. The protocol: Each overnight-fasted dog in group 1 received an intravenous bolus dose administration (1 mg/kg) of the compound of Formula (I). Following i.v. dose administration, blood samples (˜3 mL) were collected via jugular venipuncture, or other suitable site, into EDTA tubes and placed on wet ice, at predose (0.0), 0.25, 0.5, 1, 2, 4, 8, and 24 hours post dose. Each overnight-fasted dog in groups 2-5 received a single oral dose (200 mg) of compound of Formula (I). Following oral dose administration, blood samples (˜3 mL) were collected via jugular venipuncture, or other suitable site, into EDTA tubes and placed on wet ice, at predose (0.0), 0.25, 0.5, 1, 2, 4, 8, 24, 36, and 48 hours post dose. Plasma was harvested by centrifugation, each plasma sample are split into approximately equal parts before being frozen at −70° C. Food was returned after the 4 hour blood sample is collected. All samples were processed within two hours of collection. All samples are labeled with the study number, test article, dose, time interval, species, and animal identification number.
One set of plasma samples were analyzed for unchanged compound of Formula (I) concentrations using a liquid chromatographic-triple quadrupole mass spectrometric (LC-MS/MS) assay procedure. Any remaining plasma was retained for possible metabolite profiling. […]

`Cc1cnc(NCC(F)(F)c2ccccc2)c(=O)n1CC(=O)NCCONC(=N)N` [Compound X]: the colonic absorption result is “very poor colonic absorption”.
